{"source": "patent US10968192B2", "about": "“Crystalline solid forms of N-(1-((2-(dimethylamino)ethyl)amino)-2-methyl-1-oxopropan-2-yl)-4-(4-(2-methyl-5-((2S,3R,4R,5S,6R)-3,4,5-trihydroxy-6-(methylthio)tetrahydro-2H-pyran-2-yl)benzyl)phenyl)butanamide and methods of their synthesis” (Lexicon Pharmaceuticals, Inc., priority 2018, dated 2021)", "key": {"[1]": {"target": "T1, sodium glucose co-transporter type 1 (SGLT1) (Homo sapiens, UniProt P13866)", "T1 sequence (P13866 1-664)": "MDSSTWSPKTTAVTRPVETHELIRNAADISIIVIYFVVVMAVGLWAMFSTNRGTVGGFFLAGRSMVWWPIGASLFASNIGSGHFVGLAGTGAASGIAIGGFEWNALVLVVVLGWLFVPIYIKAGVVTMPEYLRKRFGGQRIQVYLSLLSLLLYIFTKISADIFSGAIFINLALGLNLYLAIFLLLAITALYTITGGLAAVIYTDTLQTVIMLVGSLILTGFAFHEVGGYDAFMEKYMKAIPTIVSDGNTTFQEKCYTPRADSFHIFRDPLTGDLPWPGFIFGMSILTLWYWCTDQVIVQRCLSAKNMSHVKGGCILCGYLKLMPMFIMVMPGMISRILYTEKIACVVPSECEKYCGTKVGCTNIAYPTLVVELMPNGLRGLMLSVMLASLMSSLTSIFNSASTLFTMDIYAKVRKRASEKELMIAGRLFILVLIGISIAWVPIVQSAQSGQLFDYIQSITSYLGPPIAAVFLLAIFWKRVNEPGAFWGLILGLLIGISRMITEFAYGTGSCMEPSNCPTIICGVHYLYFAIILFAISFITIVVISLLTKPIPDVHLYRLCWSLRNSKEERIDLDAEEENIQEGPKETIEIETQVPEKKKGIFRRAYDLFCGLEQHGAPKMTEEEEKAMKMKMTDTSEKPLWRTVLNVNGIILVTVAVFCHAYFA", "settings": "qualitative statement; see U.S. Pat. No. 9,200,025, Examples 6.39, 6.40; cited from earlier work"}, "[2]": {"test": "Polymorphism studies of the L-proline co-crystal: solid-form stability upon drying", "type": "physicochemical", "description": "Significant further research directed at discovering useful and stable solid forms of the compound finally led to the discovery of a few crystalline forms of the free base, solvates, and co-crystals. […] Although polymorphism studies led to the identification of eleven different Raman spectroscopic classes of the co-crystal, three were dominated by amorphous material and most were unstable (i.e., lose their crystallinity or convert to other forms) upon drying. […] The suspension was filtered and the wet-cake was dried. […] (DSC peak 147° C.). The solid was used as seeds to prepare 0.7 g more Form II polymorph of the L-proline cocrystal in a similar fashion."}}, "data": [{"molecule": "CS[C@H]1O[C@@H](c2ccc(C)c(Cc3ccc(CCCC(=O)NC(C)(C)C(=O)NCCN(C)C)cc3)c2)[C@H](O)[C@@H](O)[C@@H]1O", "note": "[Compound I, N-(1-((2-(dimethylamino)ethyl)-amino)-2-methyl-1-oxopropan-2-yl)-4-(4-(2-methyl-5-((2S,3R,4R,5S,6R)-3,4,5-trihydroxy-6-(methylthio)tetrahydro-2H-pyran-2-yl)benzyl)phenyl)butanamide]", "values": [{"measurement": "inhibition of sodium glucose co-transporter type 1 (SGLT1)", "setting": "[1]", "value": "potent inhibitor"}]}, {"molecule": "CS[C@H]1O[C@@H](c2ccc(C)c(Cc3ccc(CCCC(=O)NC(C)(C)C(=O)NCCN(C)C)cc3)c2)[C@H](O)[C@@H](O)[C@@H]1O", "note": "[Form I, N-(1-((2-(dimethylamino)ethyl)-amino)-2-methyl-1-oxopropan-2-yl)-4-(4-(2-methyl-5-((2S,3R,4R,5S,6R)-3,4,5-trihydroxy-6-(methylthio)tetrahydro-2H-pyran-2-yl)benzyl)phenyl)butanamide L-proline]", "values": [{"measurement": "solid-form conversion upon drying", "setting": "[2]; wet cake from ethanol, dried at 50° C.", "value": "converted to Form II upon drying"}]}, {"molecule": "CS[C@H]1O[C@@H](c2ccc(C)c(Cc3ccc(CCCC(=O)NC(C)(C)C(=O)NCCN(C)C)cc3)c2)[C@H](O)[C@@H](O)[C@@H]1O", "note": "[Form II, N-(1-((2-(dimethylamino)ethyl)-amino)-2-methyl-1-oxopropan-2-yl)-4-(4-(2-methyl-5-((2S,3R,4R,5S,6R)-3,4,5-trihydroxy-6-(methylthio)tetrahydro-2H-pyran-2-yl)benzyl)phenyl)butanamide L-proline]", "values": [{"measurement": "solid-form stability (retains crystallinity / does not convert to other forms upon drying)", "setting": "[2]; L-proline co-crystal forms, polymorphism studies", "value": "stable enough to be useful in pharmaceutical formulations"}]}]}
